Laboratory results taken from ChEMBL document CHEMBL1201862, “PubChem BioAssay data set” (2004).
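Results reflect a 48-hour exposure of cells in 96-well plates to compound at five concentrations. Abbreviation: GI50, concentration required for 50% inhibition of growth.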 Calls of active or inactive are those of the source. No stated cut-off is given here; in the data, active = GI50 up to about 1.1 µM and inactive = higher.

What was measured:
Test in all cases: NCI-60 cell line screen, 48 h
NCI-H226 = system: NCI-H226
NCI-H23 = system: NCI-H23
SNB-19 = system: SNB-19
MCF7 = system: MCF7
EKVX = system: EKVX
K562 = system: K562
M14 = system: M14
A549 = system: A549
Hs-578T = system: Hs-578T
OVCAR-3 = system: OVCAR-3
CCRF-CEM = system: CCRF-CEM
UACC-257 = system: UACC-257
MDA-MB-231 = system: MDA-MB-231
UO-31 = system: UO-31
T47D = system: T47D
KM12 = system: KM12
ACHN = system: ACHN
LOX IMVI = system: LOX IMVI
MDA-N = system: MDA-N
HOP-92 = system: HOP-92

Row | Structure (SMILES) | GI50 (NCI-H226) | GI50 (NCI-H23) | GI50 (SNB-19) | GI50 (MCF7) | GI50 (EKVX) | GI50 (K562) | GI50 (M14) | GI50 (A549) | GI50 (Hs-578T) | GI50 (OVCAR-3) | GI50 (CCRF-CEM) | GI50 (UACC-257) | GI50 (MDA-MB-231) | GI50 (UO-31) | GI50 (T47D) | GI50 (KM12) | GI50 (ACHN) | GI50 (LOX IMVI) | GI50 (MDA-N) | GI50 (HOP-92)
1 | C=C(C)c1nc(C#N)c(N)o1 | > 100 µM (inactive) | > 100 µM (inactive) | > 100 µM (inactive) | > 100 µM (inactive) | > 100 µM (inactive) | > 100 µM (inactive) | > 100 µM (inactive) | > 100 µM (inactive) | > 100 µM (inactive) | > 100 µM (inactive) | > 100 µM (inactive) | > 100 µM (inactive) | > 100 µM (inactive) | > 100 µM (inactive) | > 100 µM (inactive) | > 100 µM (inactive) | > 100 µM (inactive) | > 100 µM (inactive) | > 100 µM (inactive) | 
2 | O=C(c1ccc(Cl)cc1)N(C(=O)N1CCC(c2ccccc2)CC1)c1ccccc1 | 17.8 µM (inactive) | 23.9 µM (inactive) | 72.1 µM (inactive) | 39.4 µM (inactive) | 10.4 µM (inactive) | 32.1 µM (inactive) | 18.4 µM (inactive) |  | 24.2 µM (inactive) | 44.8 µM (inactive) | 18.9 µM (inactive) | 25.4 µM (inactive) | 26.1 µM (inactive) | 12.1 µM (inactive) | 11.1 µM (inactive) | 11.4 µM (inactive) | 57.8 µM (inactive) | 28.1 µM (inactive) | 39.3 µM (inactive) | 
3 | COc1ccc(/C=N/n2c(Cc3ccccc3)n[nH]c2=O)cc1 | > 100 µM (inactive) | 94.8 µM (inactive) | 70.6 µM (inactive) | > 100 µM (inactive) | > 100 µM (inactive) | > 100 µM (inactive) | > 100 µM (inactive) | > 100 µM (inactive) | 32.3 µM (inactive) | > 100 µM (inactive) | > 100 µM (inactive) | > 100 µM (inactive) | 22.6 µM (inactive) | > 100 µM (inactive) | > 100 µM (inactive) | > 100 µM (inactive) | > 100 µM (inactive) |  | > 100 µM (inactive) | 
4 | CSc1cnc2ccccc2c1SC1CN(Cc2ccccc2)c2ccccc2C1=O (stereo unspecified) | > 100 µM (inactive) | > 100 µM (inactive) | > 100 µM (inactive) | > 100 µM (inactive) | > 100 µM (inactive) | > 100 µM (inactive) | > 100 µM (inactive) | > 100 µM (inactive) |  | > 100 µM (inactive) | > 100 µM (inactive) | > 100 µM (inactive) | > 100 µM (inactive) | > 100 µM (inactive) | > 100 µM (inactive) | > 100 µM (inactive) | > 100 µM (inactive) | > 100 µM (inactive) | > 100 µM (inactive) | > 100 µM (inactive)
5 | CC[N+]1(C)CCC(O)(c2ccc(Cl)c(Cl)c2)C(C(=O)c2ccc(Cl)c(Cl)c2)C1 (stereo unspecified) | > 10 µM (inactive) | > 10 µM (inactive) | > 10 µM (inactive) | > 10 µM (inactive) | > 10 µM (inactive) | > 10 µM (inactive) | > 10 µM (inactive) | > 10 µM (inactive) | > 10 µM (inactive) | > 10 µM (inactive) | 2.61 µM (inactive) | > 10 µM (inactive) |  | > 10 µM (inactive) | > 10 µM (inactive) | > 10 µM (inactive) | > 10 µM (inactive) | > 10 µM (inactive) | > 10 µM (inactive) | > 10 µM (inactive)
6 | COc1ccc2c(c1)C1c3ccccc3CCN1CCC2 (stereo unspecified) | 45.3 µM (inactive) | 47.9 µM (inactive) | 55.2 µM (inactive) | 41.1 µM (inactive) | > 100 µM (inactive) | 33 µM (inactive) | 32.1 µM (inactive) | 51.2 µM (inactive) | 42.9 µM (inactive) | 73.8 µM (inactive) | 38.5 µM (inactive) | 39.6 µM (inactive) | 35.8 µM (inactive) | 26.9 µM (inactive) | > 100 µM (inactive) | 29.4 µM (inactive) | 64.9 µM (inactive) | 44.7 µM (inactive) |  | 70.3 µM (inactive)
7 | NC(=O)C1CCN(Cc2c(Cl)c(Cl)c(CN3CCC(C(N)=O)CC3)c(Cl)c2Cl)CC1 | > 100 µM (inactive) | > 100 µM (inactive) | 43.9 µM (inactive) | > 100 µM (inactive) | 38.6 µM (inactive) | > 100 µM (inactive) | 86.3 µM (inactive) | > 100 µM (inactive) | 49.9 µM (inactive) | > 100 µM (inactive) | > 100 µM (inactive) | > 100 µM (inactive) | 28.8 µM (inactive) | 63.5 µM (inactive) | > 100 µM (inactive) | > 100 µM (inactive) | > 100 µM (inactive) | > 100 µM (inactive) |  | 67.1 µM (inactive)
8 | CN(/N=C\c1ccc2ccccc2c1)C1=NCCN1 | 16.3 µM (inactive) | 30.7 µM (inactive) |  | 16.3 µM (inactive) | 19.8 µM (inactive) | 18.1 µM (inactive) |  | 15.8 µM (inactive) | 20.4 µM (inactive) | 31.9 µM (inactive) | 24.3 µM (inactive) | 14.8 µM (inactive) | 16.4 µM (inactive) | 13.2 µM (inactive) | 26.2 µM (inactive) | 15.7 µM (inactive) | 23.1 µM (inactive) | 11.2 µM (inactive) |  | 0.0817 µM (active)
9 | CC(C(=O)NCNC(=O)c1ccccc1)C(=O)NCc1ccccc1 (stereo unspecified) | > 100 µM (inactive) | > 100 µM (inactive) | > 100 µM (inactive) | > 100 µM (inactive) | > 100 µM (inactive) |  | > 100 µM (inactive) | > 100 µM (inactive) | > 100 µM (inactive) |  | > 100 µM (inactive) | > 100 µM (inactive) | > 100 µM (inactive) | > 100 µM (inactive) | > 100 µM (inactive) | > 100 µM (inactive) | > 100 µM (inactive) |  | > 100 µM (inactive) | > 100 µM (inactive)
10 | COC1OC(Cn2c(C)nc(Br)c2Br)C(O)C(O)C1O (stereo unspecified) |  | > 100 µM (inactive) | > 100 µM (inactive) | > 100 µM (inactive) | > 100 µM (inactive) | > 100 µM (inactive) | > 100 µM (inactive) | > 100 µM (inactive) | > 100 µM (inactive) | > 100 µM (inactive) | > 100 µM (inactive) | > 100 µM (inactive) | > 100 µM (inactive) | > 100 µM (inactive) | > 100 µM (inactive) | > 100 µM (inactive) | > 100 µM (inactive) |  | > 100 µM (inactive) | > 100 µM (inactive)
11 | C(=C\c1cc[n+](CCc2ccccc2)cc1)/c1ccccc1 | 13.8 µM (inactive) | 12.5 µM (inactive) | 12.7 µM (inactive) | 9.16 µM (inactive) | 56.9 µM (inactive) | 16.8 µM (inactive) | 7.91 µM (inactive) | 5.64 µM (inactive) | 15.2 µM (inactive) | 5.26 µM (inactive) | 13.4 µM (inactive) | 4.25 µM (inactive) | 12.6 µM (inactive) | > 100 µM (inactive) | 5.58 µM (inactive) | 3.98 µM (inactive) | 26.9 µM (inactive) | 17.5 µM (inactive) |  | 24.7 µM (inactive)
12 | O=C(CC(C(=O)c1cccs1)c1ccsc1)c1ccco1 (stereo unspecified) | 27 µM (inactive) | 19.5 µM (inactive) |  | 21.1 µM (inactive) | 24.8 µM (inactive) |  | 19.4 µM (inactive) | 21.6 µM (inactive) | 19.1 µM (inactive) | 54.8 µM (inactive) | 19.1 µM (inactive) | 37.9 µM (inactive) |  | 21.2 µM (inactive) | 24.7 µM (inactive) | 22.7 µM (inactive) | 32.3 µM (inactive) | 37.3 µM (inactive) | 27.7 µM (inactive) | > 100 µM (inactive)
13 | COc1ccc(C2c3c(-c4ccccc4)nn(-c4ccccc4)c3Oc3ncn(N)c(=N)c32)cc1OC (stereo unspecified) | 2.46 µM (inactive) | 2.54 µM (inactive) | 2.83 µM (inactive) | 1.84 µM (inactive) | 1.91 µM (inactive) | 3.82 µM (inactive) | 2.04 µM (inactive) | 2.24 µM (inactive) | 1.97 µM (inactive) | 1.63 µM (inactive) | 2.56 µM (inactive) | 1.95 µM (inactive) | 1.71 µM (inactive) | 1.68 µM (inactive) | 1.97 µM (inactive) | 1.83 µM (inactive) | 1.86 µM (inactive) | 1.69 µM (inactive) |  | 2.33 µM (inactive)
14 | CN1CC[C@]23c4c5ccc(O)c4OC2c2[nH]ncc2C[C@H]3[C@H]1C5 (stereo partly specified) | > 100 µM (inactive) | > 100 µM (inactive) | > 100 µM (inactive) | > 100 µM (inactive) | > 100 µM (inactive) | > 100 µM (inactive) | > 100 µM (inactive) | > 100 µM (inactive) | > 100 µM (inactive) | > 100 µM (inactive) | > 100 µM (inactive) | > 100 µM (inactive) | > 100 µM (inactive) | > 100 µM (inactive) | > 100 µM (inactive) | > 100 µM (inactive) | > 100 µM (inactive) | > 100 µM (inactive) |  | > 100 µM (inactive)
15 | Cn1c2c3ccccc3nc-2c(O)c2ccccc21 [HYDROXYCRYPTOLEPINE] | > 100 µM (inactive) | > 100 µM (inactive) | > 100 µM (inactive) | > 100 µM (inactive) | > 100 µM (inactive) | > 100 µM (inactive) | > 100 µM (inactive) | > 100 µM (inactive) |  | > 100 µM (inactive) | 90.6 µM (inactive) | > 100 µM (inactive) | 85.9 µM (inactive) | > 100 µM (inactive) | > 100 µM (inactive) | > 100 µM (inactive) | 48.6 µM (inactive) | > 100 µM (inactive) | > 100 µM (inactive) | > 100 µM (inactive)
